Results published in patent publication US20200131156A1, “ARYLSULFONYLPYROLECARBOXAMIDE DERIVATIVES AS Kv3 POTASSIUM CHANNEL ACTIVATORS” (H. Lundbeck A/S, priority 2018, published 2020).
Like-named read-outs stand apart in the source and are kept apart here.

Columns and labels:
hKv1.1/1.2 = hKv1.1/1.2 (Homo sapiens, UniProt P16389+Q09470); assay: Off-target Kv1.1/1.2 inhibition electrophysiology (Qpatch); assay type: cell-based; conditions: up to 30 μM
Protocol: (§1) The activity of selected compound examples at three key ion channel off targets was measured, namely Nav1.1, Kv1.1/1.2 and Kv7.2/7.3.
Effects of selected examples on inhibition of the voltage gated heteromeric potassium channel Kv1.1/1.2 was also tested in a use-dependent manner by electrophysiology at concentrations up to 30 μM.

hNav1.1 = hNav1.1 (Homo sapiens, UniProt P35498); assay: Off-target Nav1.1 electrophysiology (Qpatch), multiple state readouts; assay type: cell-based; conditions: resting, use-dependent and inactivated state readouts, up to 30 μM; for EC50: activation; for IC50: inhibition
Protocol: as §1
The voltage gated sodium channel, Nav1.1, is known to have state-dependent pharmacology, therefore, compound examples were tested for effects on inhibition or activation at the resting state channel, a use-dependent readout, and an inactivated state readout by electrophysiology, at concentrations up to 30 μM.

[1] = Unbound fraction in plasma; assay type: in vitro ADME, rat
[2] = system: fast-spiking interneurons (FSI); assay: Hippocampal brain slice current clamp recording, FSI excitability (AP firing); assay type: cell-based, rat
Protocol: Male Sprague Dawley rats (18˜24 days old) from Shanghai Laboratory Animal Center (Shanghai, China) were used for brain slice experiments. They were housed in groups of five in controlled conditions (temperature of 23±3° C., humidity of 40-70%, and 12:12 light-dark cycle with lights on at 5:00 am) and free access to food and water. All procedures were conducted in agreement with the guideline of Institutional Animal Care and Use Committee at ChemPartner. Ethical approval was obtained by the The Danish Animal Experimentation Inspectorate (journal no. 2014 15 0201 00339).
Animals were decapitated by a guillotine and their brains quickly removed and placed in ice-cold modified artificial cerebral spinal fluid (ACSF) containing (in mM): 110 sucrose, 60 NaCl, 3 KCl, 5 glucose, 28 NaHCO3, 1.25 NaH2PO4, 0.5 CaCl2 and 7 MgCl2, aerated with 95% O2/5% CO2. The brains were block-trimmed and glued onto the stage of a vibratome (VT1200S, Leica Microsystems Inc., Bannockburn, Ill., USA). Parasagittal hippocampal slices (300 μm) were cut and incubated in the regular carbogenated ACSF containing (in mM): 119 NaCl, 2.5 KCl, 1.2 Na2HPO4, 25 NaHCO3, 2.5 CaCl2, 1.3 MgCl2, 10 glucose at 35° C. for the first 60 min and then transferred to room temperature prior to recordings.
In the hippocampal CA1 pyramidal cell layer, fast-spiking interneurons (FSI) or pyramidal (PYR) cells were visualized using differential interference contrast-infrared (DIC-IR)-assisted microscopy and whole-cell patch clamp recordings performed using an Axon Multiclamp 700B amplifier (Molecular Devices, Union City, Calif.). FSI were selected based on non-pyramidal shape and multipolar dendrites. Putative FSI were only accepted for experiments if they fulfilled the following electrophysiological criteria: short duration action potentials (APs <1 ms), large after hyperpolarizations, and, in response to sustained current injection, high frequency AP firing (>100 Hz) with limited spike frequency adaptation. Patch pipettes (4-5MΩ) were pulled from thick-walled borosilicate glass tubing (O.D.: 1.5 mm, I.D.: 0.75 mm; Sutter Instrument, Novato, Calif., USA).
Whole cell patch clamp recordings in current clamp mode were used to study neuronal excitability. AP firing was recorded in the presence of 50 μM APV, 10 μM DNQX and 10 μM Gabazine to block all synaptic transmission mediated by NMDA, AMPA and GABAA receptors. Patch pipettes were filled with an intracellular solution containing (in mM): 110 KMeSO4, 10 HEPES, 1 EGTA, 2 MgCl2, 4 Na2-ATP, 0.4 TRIS-GTP, 10 Tris2-Phosphocreatine, pH adjusted to 7.3 with KOH. The osmolarity was adjusted to 290 mOsm with sucrose. The holding potential was maintained continuously at −70 mV by manual DC injection. Series resistance (10-20 MΩ after “break-in”) was 90% compensated and monitored constantly during the entire experiment by “bridge”-balancing of the instantaneous voltage responses to a hyperpolarizing current pulse before each depolarizing stimulus delivery. A series of depolarizing current steps (800 ms-long) were applied every 3 min. Following at least 15 min of stable activity, Kv3 channel modulators were applied to the ACSF at increasing concentrations.

[3] = resting, read-out: hKv1.1/1.2 (Qpatch) Resting IC50
[4] = use-dependent, read-out: hKv1.1/1.2 (Qpatch) Use-dependent IC50

Sequence of hKv1.1/1.2 (Q09470 whole entry): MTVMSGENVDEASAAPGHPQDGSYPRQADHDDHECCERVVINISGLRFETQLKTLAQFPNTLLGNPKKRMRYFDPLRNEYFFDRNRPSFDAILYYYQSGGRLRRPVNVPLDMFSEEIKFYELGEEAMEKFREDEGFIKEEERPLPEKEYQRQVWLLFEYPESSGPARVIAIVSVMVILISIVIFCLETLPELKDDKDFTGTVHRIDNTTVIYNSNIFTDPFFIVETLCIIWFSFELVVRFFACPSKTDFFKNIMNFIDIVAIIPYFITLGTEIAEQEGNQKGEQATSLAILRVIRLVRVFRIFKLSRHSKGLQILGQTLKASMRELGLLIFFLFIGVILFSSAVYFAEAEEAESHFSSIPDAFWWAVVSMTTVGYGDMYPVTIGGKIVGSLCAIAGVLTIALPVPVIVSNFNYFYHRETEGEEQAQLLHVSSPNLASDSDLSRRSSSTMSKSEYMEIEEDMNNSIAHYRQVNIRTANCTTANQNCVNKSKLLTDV
Sequence of hKv1.1/1.2 (P16389 whole entry): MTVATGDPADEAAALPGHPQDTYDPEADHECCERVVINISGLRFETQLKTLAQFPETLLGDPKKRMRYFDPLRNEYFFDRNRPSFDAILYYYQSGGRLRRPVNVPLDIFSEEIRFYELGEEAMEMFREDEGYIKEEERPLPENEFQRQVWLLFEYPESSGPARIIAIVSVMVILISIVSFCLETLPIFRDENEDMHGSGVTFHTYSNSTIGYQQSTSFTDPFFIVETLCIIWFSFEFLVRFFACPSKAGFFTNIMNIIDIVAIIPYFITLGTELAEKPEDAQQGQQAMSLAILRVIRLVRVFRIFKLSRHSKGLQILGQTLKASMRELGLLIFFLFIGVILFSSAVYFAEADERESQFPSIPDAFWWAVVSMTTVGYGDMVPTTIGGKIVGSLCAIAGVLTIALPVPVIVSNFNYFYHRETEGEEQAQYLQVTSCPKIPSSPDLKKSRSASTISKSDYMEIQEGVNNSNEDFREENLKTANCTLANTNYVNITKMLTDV

IC50 (hKv1.1/1.2; [3]) [µM]	IC50 (hKv1.1/1.2; [4]) [µM]	EC50 (hNav1.1) [µM]	IC50 (hNav1.1) [µM]	fraction unbound ([1]; rat table footnote)	fraction unbound ([1]; rat PK table footnote)	SMILES	FSI excitability (number of APs) ([2]; 10 μM)	FSI excitability (number of APs) ([2]; 0.3 and 1 μM)	FSI excitability ([2]; low concentrations (0.1 and 1 μM))
> 30	≥ 30	> 30	> 30	0.12	–	Cc1ccc(S(=O)(=O)n2ccc(C(=O)NCc3ncco3)c2)cc1 [Compound 86, 1-(4-methylbenzene-1-sulfonyl)-N-[(1,3-oxazol-2-yl)methyl]-1H-pyrrole-3-carboxamide]	slight reduction in excitability	increased excitability	–
> 30	> 30	> 30	> 30	–	0.1	Cc1cnc(CNC(=O)c2ccn(S(=O)(=O)c3ccc(F)cc3C)c2)cn1 [Compound 90, 1-(4-fluoro-2-methylbenzene-1-sulfonyl)-N-[(5-methylpyrazin-2-yl)methyl]-1H-pyrrole-3-carboxamide]	decreased, reaching a level below baseline	increase in FSI excitability	increases FSI excitability
